Test system: corneal injury induced by dry eye conditions
Test: in vivo desiccation model of dry eye (methylene blue corneal staining, absorbance at 660 nm)
Design: species or system rabbit
Details: 15(S)-HETE 1 μM (0.000034% w/v), 50 μL topical O.D., 4-hour desiccation
Method: A composition of the present invention (Example 1, with the compound of formula (III) being 15(S)-HETE) was compared to an analogous composition without ethanol, an analogous composition without 15(S)-HETE, and analogous compositions with approximately one-half, one-tenth, and twice the amount of ethanol, respectively, in an in vivo desiccation model of dry eye.
Briefly, the assay was performed by first anesthetizing the animals with ketamine/xylazine/glycopyrrolate. The O.S. eye was lubricated with DuraTears® and remained taped shut throughout the experiment. The O.D. eye was then dosed with 50 μL of test composition (Example 1) or 50 μL of the same composition without ethanol and the eye taped shut for 10 minutes. The tape was then removed, the eyelids opened and a speculum was inserted into the eye. The eye was held open with the speculum for a period of 4 hours. During this time, the animals were monitored every 15 minutes and supplemental injections of ketamine/xylazine (at half the initial dose/injection) were administered as needed to maintain anesthesia. At the end of the 4-hour period, 2 sutures were placed in the upper eyelid and 1 suture was placed in the lower eyelid. A corneal/conjunctival cup was formed by using the sutures to lift the eyelids upward and the sutures taped to a stand. 1 mL methylene blue (1% solution in water) was added to the conjunctival cup and the cornea was stained with the solution for 5 minutes. The eye was then washed with 200 mL of a balanced salt solution. Corneal thickness was determined by non-invasive pachymetry. Three readings were taken for each animal. Corneal staining score was obtained by visualizing the cornea with a slit-lamp and determining the percentage of the cornea that was stained with methylene blue. A photograph was taken using the slit-lamp machine. The rabbit was then euthanized immediately by intravenous injection of Sleepaway® solution and the eye was excised. The cornea was isolated and an 8 mm punch of the central cornea collected. This corneal punch was placed in a small glass vial containing 2 mL acetone/saturated sodium sulfate (7:3, vol/vol). Absorbance of the extracted solution was measured at 660 nm with a spectrophotometer.
The naïve control animals were anesthetized with ketamine/xylazine/glycopyrrolate and the O.S. eye lubricated and taped shut. Sutures were immediately placed in the O.D. eyelids. The corneal cup was formed and the cornea was stained with methylene blue, washed with a balanced salt solution and collected, as described above. The data were converted to “percent protection” by subtracting from 1, the quotient of the test sample absorbances divided by the average of control sample absorbance, and multiplying by 100. The results are contained in Table 1 and illustrated in FIGS. 1 and 2: […]

CCCCC[C@H](O)/C=C/C=C\C/C=C\C/C=C\CCCC(=O)O [15(S)-HETE, 5,8,11,13-Eicosatetraenoic acid, 15-hydroxy-, [15S-(5Z,8Z,11Z,13E)]-]
% Protection (Ethanol 0.0 % (w/v)): 13% | % Protection (Ethanol 0.00505 % (w/v)): 2% | % Protection (Ethanol 0.0252 % (w/v), p < 0.05 versus control): 42% | % Protection (Ethanol 0.0505 % (w/v) (composition of Example 1), p < 0.05 versus control): 60% | % Protection (Ethanol 0.101 % (w/v)): 31%
